Common to all, as to experiment: relative viability (nuclei count vs DMSO), 5 days (fraction); higher = more cells survive
Compound in the assay “Pictilisib + Palbociclib”: CS(=O)(=O)N1CCN(Cc2cc3nc(-c4cccc5[nH]ncc45)nc(N4CCOCC4)c3s2)CC1 [Pictilisib] + CC(=O)c1c(C)c2cnc(Nc3ccc(N4CCNCC4)cn3)nc2n(C2CCCC2)c1=O [Palbociclib] (partner 0.5 µM)
A digest of the protocol: (§1)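 Dosing by pin tool came one day after lung cancer cell lines were seeded in 1536-well plates, using either one drug or a fixed anchor-drug dose plus five library-drug doses (not always all listed) in √10 steps. After 5 days, nuclei were counted on 4× images. Relative viability is treated-well nuclei count divided by vehicle-well nuclei count, and values are medians of duplicate plates.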

Compound in the assay “Pictilisib + Bortezomib”: CS(=O)(=O)N1CCN(Cc2cc3nc(-c4cccc5[nH]ncc45)nc(N4CCOCC4)c3s2)CC1 [Pictilisib] + CC(C)C[C@H](NC(=O)[C@H](Cc1ccccc1)NC(=O)c1cnccn1)B(O)O [Bortezomib] (partner 0.002 µM)
In outline: as §1

Compound in the assay “Pictilisib + Luminespib”: CS(=O)(=O)N1CCN(Cc2cc3nc(-c4cccc5[nH]ncc45)nc(N4CCOCC4)c3s2)CC1 [Pictilisib] + CCNC(=O)c1noc(-c2cc(C(C)C)c(O)cc2O)c1-c1ccc(CN2CCOCC2)cc1 [Luminespib] (partner 0.01 µM)
In outline: as §1

Compound in the assay “Pictilisib + AZD7762”: CS(=O)(=O)N1CCN(Cc2cc3nc(-c4cccc5[nH]ncc45)nc(N4CCOCC4)c3s2)CC1 [Pictilisib] + NC(=O)Nc1cc(-c2cccc(F)c2)sc1C(=O)N[C@H]1CCCNC1 [AZD7762] (partner 0.2 µM)
A digest of the protocol:
as §1

Compound in the assay “MK-2206 + Tozasertib”: NC1(c2ccc(-c3nc4ccn5c(=O)[nH]nc5c4cc3-c3ccccc3)cc2)CCC1 [MK-2206] + Cc1cc(Nc2cc(N3CCN(C)CC3)nc(Sc3ccc(NC(=O)C4CC4)cc3)n2)n[nH]1 [Tozasertib] (partner 0.1 µM)
In outline:
as §1

Consider LCLC-97TM1, for which the relative viability came to 0.206 with Pictilisib + Palbociclib (first compound 0.02 µM); 0.269 in the assay with Pictilisib + Palbociclib (first compound 0.06325 µM); 0.125 with Pictilisib + Palbociclib (first compound 0.6325 µM); 0.0838 with Pictilisib + Palbociclib (first compound 2 µM); 0.807 with Pictilisib + Bortezomib (first compound 0.02 µM); 0.998 with Pictilisib + Bortezomib (first compound 0.06325 µM). In addition, the relative viability was found to be 0.374 with Pictilisib + Bortezomib (first compound 0.6325 µM); 0.184 in the assay with Pictilisib + Bortezomib (first compound 2 µM); 0.751 in the assay with Pictilisib + Luminespib (first compound 0.02 µM); 0.867 with Pictilisib + Luminespib (first compound 0.06325 µM); 0.442 with Pictilisib + Luminespib (first compound 0.6325 µM); 0.224 with Pictilisib + Luminespib (first compound 2 µM). Besides, the relative viability stood at 0.34 with Pictilisib + AZD7762 (first compound 0.02 µM); 0.469 in the assay with Pictilisib + AZD7762 (first compound 0.06325 µM); 0.258 with Pictilisib + AZD7762 (first compound 0.6325 µM); 0.133 with Pictilisib + AZD7762 (first compound 2 µM); 0.26 in the assay with MK-2206 + Tozasertib (first compound 0.01 µM); 0.382 in the assay with MK-2206 + Tozasertib (first compound 0.03162 µM). The relative viability with MK-2206 + Tozasertib (first compound 0.3162 µM) came to 0.194; in the assay with MK-2206 + Tozasertib (first compound 1 µM), 0.223.
In the case of EMC-BAC-2, the relative viability in the assay with Pictilisib + Palbociclib (first compound 0.02 µM) is 0.502; with Pictilisib + Palbociclib (first compound 0.06325 µM), 0.498; with Pictilisib + Palbociclib (first compound 0.6325 µM), 0.401; in the assay with Pictilisib + Palbociclib (first compound 2 µM), 0.337; with Pictilisib + Bortezomib (first compound 0.02 µM) it was 1.05; with Pictilisib + Bortezomib (first compound 0.06325 µM), 1.2. Besides, the relative viability was determined as 0.917 with Pictilisib + Bortezomib (first compound 0.6325 µM); 0.68 in the assay with Pictilisib + Bortezomib (first compound 2 µM); 1.23 in the assay with Pictilisib + Luminespib (first compound 0.02 µM); 0.945 with Pictilisib + Luminespib (first compound 0.06325 µM); 0.926 with Pictilisib + Luminespib (first compound 0.6325 µM); 0.656 with Pictilisib + Luminespib (first compound 2 µM). The relative viability worked out at 1.16 with Pictilisib + AZD7762 (first compound 0.02 µM); 1.12 with Pictilisib + AZD7762 (first compound 0.06325 µM); 0.798 in the assay with Pictilisib + AZD7762 (first compound 0.6325 µM); 0.631 with Pictilisib + AZD7762 (first compound 2 µM); 0.333 in the assay with MK-2206 + Tozasertib (first compound 0.01 µM); 0.298 in the assay with MK-2206 + Tozasertib (first compound 0.03162 µM). Besides, the relative viability with MK-2206 + Tozasertib (first compound 0.3162 µM) was 0.271; with MK-2206 + Tozasertib (first compound 1 µM), 0.261.
As to A-427, the relative viability is 0.512 with Pictilisib + Palbociclib (first compound 0.02 µM); 0.511 in the assay with Pictilisib + Palbociclib (first compound 0.06325 µM); 0.504 with Pictilisib + Palbociclib (first compound 0.6325 µM); 0.508 in the assay with Pictilisib + Palbociclib (first compound 2 µM); 1.03 with Pictilisib + Bortezomib (first compound 0.02 µM); 0.949 with Pictilisib + Bortezomib (first compound 0.06325 µM). Also, the relative viability with Pictilisib + Bortezomib (first compound 0.6325 µM) came to 0.985; with Pictilisib + Bortezomib (first compound 2 µM) it was 0.858; with Pictilisib + Luminespib (first compound 0.02 µM), 0.864; with Pictilisib + Luminespib (first compound 0.06325 µM), 0.97; in the assay with Pictilisib + Luminespib (first compound 0.6325 µM), 0.855; with Pictilisib + Luminespib (first compound 2 µM) it was 0.724. The relative viability with Pictilisib + AZD7762 (first compound 0.02 µM) was determined as 0.796; with Pictilisib + AZD7762 (first compound 0.06325 µM), 0.738; with Pictilisib + AZD7762 (first compound 0.6325 µM), 0.556; with Pictilisib + AZD7762 (first compound 2 µM), 0.403; with MK-2206 + Tozasertib (first compound 0.01 µM), 0.218; with MK-2206 + Tozasertib (first compound 0.03162 µM), 0.197. Besides, the relative viability was determined as 0.191 with MK-2206 + Tozasertib (first compound 0.3162 µM) and 0.207 with MK-2206 + Tozasertib (first compound 1 µM).
As to NCI-H650, the relative viability came out at 0.323 with Pictilisib + Palbociclib (first compound 0.02 µM); 0.308 with Pictilisib + Palbociclib (first compound 0.06325 µM); 0.271 with Pictilisib + Palbociclib (first compound 0.6325 µM); 0.265 in the assay with Pictilisib + Palbociclib (first compound 2 µM); 1.04 with Pictilisib + Bortezomib (first compound 0.02 µM); 0.938 with Pictilisib + Bortezomib (first compound 0.06325 µM). Moreover, the relative viability in the assay with Pictilisib + Bortezomib (first compound 0.6325 µM) turned out to be 0.526; with Pictilisib + Bortezomib (first compound 2 µM), 0.445; in the assay with Pictilisib + Luminespib (first compound 0.02 µM) it was 0.759; in the assay with Pictilisib + Luminespib (first compound 0.06325 µM), 0.809; with Pictilisib + Luminespib (first compound 0.6325 µM), 0.802; in the assay with Pictilisib + Luminespib (first compound 2 µM), 0.483. For the same cell line, the relative viability with Pictilisib + AZD7762 (first compound 0.02 µM) is 0.806; in the assay with Pictilisib + AZD7762 (first compound 0.06325 µM), 0.95; with Pictilisib + AZD7762 (first compound 0.6325 µM), 0.998; in the assay with Pictilisib + AZD7762 (first compound 2 µM) it was 0.655; with MK-2206 + Tozasertib (first compound 0.01 µM), 0.703; in the assay with MK-2206 + Tozasertib (first compound 0.03162 µM), 0.76. The relative viability in the assay with MK-2206 + Tozasertib (first compound 0.3162 µM) was 0.751; in the assay with MK-2206 + Tozasertib (first compound 1 µM), 0.772.
For NCI-H1755, the relative viability with Pictilisib + Palbociclib (first compound 0.02 µM) is 0.447; in the assay with Pictilisib + Palbociclib (first compound 0.06325 µM), 0.417; in the assay with Pictilisib + Palbociclib (first compound 0.6325 µM) it was 0.458; with Pictilisib + Palbociclib (first compound 2 µM), 0.323; with Pictilisib + Bortezomib (first compound 0.02 µM), 1.01; with Pictilisib + Bortezomib (first compound 0.06325 µM), 0.906. Further, the relative viability is 0.86 in the assay with Pictilisib + Bortezomib (first compound 0.6325 µM); 0.339 in the assay with Pictilisib + Bortezomib (first compound 2 µM); 0.412 in the assay with Pictilisib + Luminespib (first compound 0.02 µM); 0.384 in the assay with Pictilisib + Luminespib (first compound 0.06325 µM); 0.305 with Pictilisib + Luminespib (first compound 0.6325 µM); 0.189 with Pictilisib + Luminespib (first compound 2 µM). Also, the relative viability with Pictilisib + AZD7762 (first compound 0.02 µM) worked out at 0.452; with Pictilisib + AZD7762 (first compound 0.06325 µM), 0.387; with Pictilisib + AZD7762 (first compound 0.6325 µM) it was 0.354; with Pictilisib + AZD7762 (first compound 2 µM), 0.298; with MK-2206 + Tozasertib (first compound 0.01 µM), 0.647; with MK-2206 + Tozasertib (first compound 0.03162 µM), 0.549. Further, the relative viability with MK-2206 + Tozasertib (first compound 0.3162 µM) is 0.582; with MK-2206 + Tozasertib (first compound 1 µM), 0.513.
With NCI-H2085, the relative viability in the assay with Pictilisib + Palbociclib (first compound 0.02 µM) came to 0.465; in the assay with Pictilisib + Palbociclib (first compound 0.06325 µM) it was 0.462; in the assay with Pictilisib + Palbociclib (first compound 0.6325 µM), 0.362; with Pictilisib + Palbociclib (first compound 2 µM), 0.267; in the assay with Pictilisib + Bortezomib (first compound 0.02 µM), 1.08; with Pictilisib + Bortezomib (first compound 0.06325 µM) it was 1.07. Besides, the relative viability with Pictilisib + Bortezomib (first compound 0.6325 µM) is 0.871; in the assay with Pictilisib + Bortezomib (first compound 2 µM), 0.467; in the assay with Pictilisib + Luminespib (first compound 0.02 µM), 0.44; with Pictilisib + Luminespib (first compound 0.06325 µM), 0.431; in the assay with Pictilisib + Luminespib (first compound 0.6325 µM), 0.409; with Pictilisib + Luminespib (first compound 2 µM) it was 0.265. In addition, the relative viability was found to be 0.963 with Pictilisib + AZD7762 (first compound 0.02 µM); 1.06 with Pictilisib + AZD7762 (first compound 0.06325 µM); 0.354 with Pictilisib + AZD7762 (first compound 0.6325 µM); 0.287 with Pictilisib + AZD7762 (first compound 2 µM); 0.781 with MK-2206 + Tozasertib (first compound 0.01 µM); 0.793 with MK-2206 + Tozasertib (first compound 0.03162 µM). The relative viability with MK-2206 + Tozasertib (first compound 0.3162 µM) was 0.786; in the assay with MK-2206 + Tozasertib (first compound 1 µM), 0.716.
As for HOP-62, the relative viability was 0.526 with Pictilisib + Palbociclib (first compound 0.02 µM); 0.423 with Pictilisib + Palbociclib (first compound 0.06325 µM); 0.399 with Pictilisib + Palbociclib (first compound 0.6325 µM); 0.287 with Pictilisib + Palbociclib (first compound 2 µM); 1.15 in the assay with Pictilisib + Bortezomib (first compound 0.02 µM); 0.986 with Pictilisib + Bortezomib (first compound 0.06325 µM). Besides, the relative viability came to 0.693 with Pictilisib + Bortezomib (first compound 0.6325 µM); 0.652 with Pictilisib + Bortezomib (first compound 2 µM); 1.01 with Pictilisib + Luminespib (first compound 0.02 µM); 0.906 with Pictilisib + Luminespib (first compound 0.06325 µM); 0.803 in the assay with Pictilisib + Luminespib (first compound 0.6325 µM); 0.874 in the assay with Pictilisib + Luminespib (first compound 2 µM). In addition, the relative viability in the assay with Pictilisib + AZD7762 (first compound 0.02 µM) was 0.759; with Pictilisib + AZD7762 (first compound 0.06325 µM), 0.668; with Pictilisib + AZD7762 (first compound 0.6325 µM) it was 0.469; with Pictilisib + AZD7762 (first compound 2 µM), 0.459; in the assay with MK-2206 + Tozasertib (first compound 0.01 µM) it was 0.381; in the assay with MK-2206 + Tozasertib (first compound 0.03162 µM), 0.39. The relative viability in the assay with MK-2206 + Tozasertib (first compound 0.3162 µM) was determined as 0.391; in the assay with MK-2206 + Tozasertib (first compound 1 µM), 0.322.
